Measurements taken from patent US11384071B2, “Inhibitors of mechanotransduction to treat pain and modulate touch perception” (Max-Delbrück-Centrum für Molekulare Medizin in der …, priority 2016, dated 2022).

How the values were obtained:
[1] = test system: mechanically gated currents in nociceptors; experiment: Pillar array analysis of mechanically gated currents in DRG nociceptors; assay type: cell-based, mouse; details: for amplitude of mechanically gated currents in nociceptors: stimulus magnitudes between 100 and 500 nm
Protocol: HEK-293 cells (passage numbers 4-20) were cultured in DMEM plus 10% fetal calf serum (FCS). Neuro2A (N2A) cells were cultured in DMEM/Opti-MEM media plus 10% FCS.—Sensory DRG neurons were isolated from 4 week old Mus musculus (C57Bl/6). Approximately 20 ganglia were collected from each mouse and individual cells were isolated by treating ganglia with […] collagenase IV for 30 min, followed by 1 ml of 0.05% trypsin, in PBS, for 5-20 min at 37° C. Enzyme-treated ganglia, in DMEM/F-12 media containing 10% Horse Serum (HS), were disrupted by gently passaging through a 20 G needle; cells were then collected by centrifugation (1000 rpm, 3 min), washed and finally re-suspended in DMEM/F-12, 10% HS media (at no point were neurotrophins added to the culture). Sensory neurons were then seeded on EHS-laminin coated substrate and cultured overnight. Experiments involving isolated sensory neurons were conducted within 24-36 hours of isolation of the cells.
Whole-cell, patch-clamp recordings were conducted as previously described 5-7, using patch pipettes with a tip resistance of 3-6 MΩ, filled with a solution of: 110 mM KCl, 10 mM NaCl, 1 mM MgCl2, 1 mM EGTA and 10 mM HEPES, adjusted to pH 7.3 with KOH. (For experiments on DRG neurons 10 mM QX-314 was added to the pipette to block voltage-gated sodium channels 8 Extracellular solutions contained 140 mM NaCl, 4 mM KCl, 2 mM CaCl2, 1 mM MgCl2, 4 mM glucose, 10 mM HEPES, adjusted to pH 7.4 with NaOH. A Zeiss 200 inverted microscope and an EPC-10 amplifier in combination with Patchmaster software was used, data was analyzed using Fitmaster software (HEKA Electronik GmbH, Germany). Pipette and membrane capacitance were compensated using the auto function of Patchmaster, series resistance was compensated by at least 60% to minimize voltage errors. Mechanical stimuli were applied using a polished glass probe driven by the MM3A micromanipulator (Kleindiek Nanotechnik, Germany). […]
Briefly, elastomeric pillar arrays of defined dimensions were cast in PDMS with an elasticity of 2 MPa. Cells cultured on these arrays were monitored using whole-cell patch-clamp whilst a glass probe was used to apply repeated deflections (of differing magnitudes) to an individual pilus directly beneath the cell. Images were obtained of the pilus before and after deflection and images were analyzed off-line to determine the exact deflection for each data point. […] Images were analyzed off-line using Igor software (WaveMetrics, USA). […] A power analysis was used to determine that moderate to strong effects between samples could be detected with a sample size >4. […] For quantitative analysis of mechanosensitivity we measured responses in the most sensitive sub-population of mechanoreceptors, previously defined as Typell mechanoreceptors (Poole et al., 2014).

STOML3 = molecular target: T1, STOML3 (Mus musculus, UniProt Q6PE84); experiment: BiFC assay of STOML3 self-association in HEK-293 cells; assay type: cell-based; details: for STOML3 self-association based on the slope of YFP signal development: primary screen of about 35000 small molecules, each at 10 M (so in the source)
T1 construct: expressed in transfected cells; host or cells: HEK-293
T1 sequence (Q6PE84 1-287): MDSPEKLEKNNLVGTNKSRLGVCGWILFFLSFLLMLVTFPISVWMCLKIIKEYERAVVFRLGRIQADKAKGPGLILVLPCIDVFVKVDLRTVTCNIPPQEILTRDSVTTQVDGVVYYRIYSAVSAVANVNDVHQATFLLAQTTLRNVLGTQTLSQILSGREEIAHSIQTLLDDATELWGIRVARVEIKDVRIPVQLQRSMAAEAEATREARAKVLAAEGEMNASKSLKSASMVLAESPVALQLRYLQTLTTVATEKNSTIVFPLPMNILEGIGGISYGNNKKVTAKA
Protocol: HEK-293 cells were cultured in T-150 flasks to approximately 70% confluence; cells were co-transfected with plasmids encoding STOML3-VC and STOML3-VN using Fugene-HD, as per manufacturer's instructions. The transfection reaction was allowed to proceed for 8 h before cells were recovered from the dishes, resuspended in DMEM media containing 25 mM HEPES and lacking phenol red. Cells were plated in PLL-coated 384 well plates using an automated dispenser (EL406 Microplate Washer Dispenser). Plates already contained compound from the ChemBioNet compound library1. The final assay volume was 40 μl cells with 10 μM of compound. […] Development of the YFP fluorescence signal was monitored overnight (15 h), with readings taken every 3 h (ex: 515±8 nm, em: 535±8 nm). In between readings cells were maintained at 37° C., 5% CO2, and 95% humidity. The overnight monitoring of signal development was performed on a Freedom Evo workstation equipped with a robotic arm for plate transport and a Safirell plate reader for fluorescence measurement (Tecan Group Ltd, Männedorf, Switzerland), and an integrated STX44-ICSA automated plate incubator (Liconic AG, Mauren, Liechtenstein) for plate storage in between measurements. Experiments were repeated with 20 plates each day until the entire compound library had been screened and data was normalized to in-plate controls.
Compounds of interest were selected from the slope of YFP-signal vs time. Each well was compared to the average slope of in-plate positive controls (normalized percent activity), and compared to the mean and standard deviation of all samples on a plate (without the controls), giving a Z score as a measure of statistical significance. Initially, compounds were re-screened in triplicate to confirm whether or not the noted differences were repeatable; compounds with confirmed activity were selected for further analysis.
In mammals STOML3 belongs to a family of five structurally conserved membrane proteins, including stomatin, STOML1, STOML2, and podocin^10,12-16, all of which self-associate via their stomatin-domain (FIG. 8a)^10. Self-association of stomatin-domain proteins can be monitored in HEK293 cells using Bimolecular Fluorescence Complementation (BiFC) whereby N- and C-terminal halves of the YFP molecule are tagged to the prey and bait protein STOML3^2,17 (FIG. 1a). Irreversible association of the YFP fragments produces fluorescence that increases linearly over time (FIG. 1b).

normalized slope of BiFC signal development (STOML3; 2 μm and 20 μm, wild type STOML3 as bait and prey)	BiFC signal (STOML3; lower OB-1 concentration, 2 M (so in the source))	STOML3 self-association based on the slope of YFP signal development (STOML3)	Compound	amplitude of mechanically gated currents in nociceptors [1]	activation time constant for current activation τ1 ([1]; nociceptors)	latency for mechanically gated currents ([1]; nociceptors)
significantly reduced	inhibited	most effective inhibitory compounds	CCOC(=O)c1c(-c2ccccc2)oc2ccc(Oc3c([N+](=O)[O-])ncn3C)cc12 [OB-1, Ethyl 5-((1-methyl-4-nitro-1H-imidazol-5-yl)oxy)-2-phenylbenzofuran-3-carboxylate]	significant reduction		
		most effective inhibitory compounds	Cc1ccnc(NC(=O)CSc2nnc3c4ccccc4n(Cc4ccccc4)c3n2)c1 [OB-2]	significant reduction	significantly slowed	significantly slowed
